For this assay, the system named is PC3 cells. In words: NAMPT Cell Proliferation Assay. The class given is cell-based. The note with it: Homo sapiens, PC-3, 120 h, 5 days incubation, cell viability by Cell Titer Glo. In a few lines:
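Five-day CellTiter-Glo viability readout in PC3 cells grown in RPMI/10% heat-inactivated FBS. Compounds added after overnight attachment as a 10-fold dilution series, […]. Percent inhibition fitted to sigmoidal dose-response to derive IC50.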
For orientation: ATP-based viability assays read luminescence as a measure of living cells.
Turning to `O=C(Nc1ccc(OC2CN(C(=O)C3CCCO3)C2)cc1)C1CN(c2ccnnc2)C1` (stereo not drawn) [Example 262, 1-(pyridazin-4-yl)-N-(4-{[1-(tetrahydrofuran-2-ylcarbonyl)azetidin-3-yl]oxy}phenyl)azetidine-3-carboxamide], the half-inhibitory concentration (IC50) – broadly, the concentration needed to halve the response being measured – was found to be 0.119 µM.

The molecule `O=C(Nc1ccc(C2CCN(C(=O)Cc3cccc4ccccc34)CC2)cc1)[C@H]1CCN(c2cccnn2)C1` [Example 641, (3S)-N-{4-[1-(naphthalen-1-ylacetyl)piperidin-4-yl]phenyl}-1-(pyridazin-3-yl)pyrrolidine-3-carboxamide] returned a 50% inhibitory concentration (IC50) of 0.0726 µM.

`O=C(Nc1ccc(O[C@H]2CCN(C(=O)c3ccccc3F)C2)cc1)[C@H]1CCN(c2cccnn2)C1` [Example 825, (3S)—N-(4-{[(3S)-1-(2-fluorobenzoyl)pyrrolidin-3-yl]oxy}phenyl)-1-(pyridazin-3-yl)pyrrolidine-3-carboxamide] showed a 50% inhibitory concentration (IC50) of 0.0623 µM.

For the molecule `N#Cc1cccc(C(=O)N2CCC(c3ccc(NC(=O)C4CN(c5cccnn5)C4)cc3)CC2)c1` [Example 352, N-{4-[1-(3-cyanobenzoyl)piperidin-4-yl]phenyl}-1-(pyridazin-3-yl)azetidine-3-carboxamide], the IC50 turned out to be 0.00888 µM.

`O=C(Nc1ccc(C2CCN(C(=O)C3CCCCC3)CC2)cc1)C1CN(c2cccnn2)C1` [Example 339, N-{4-[1-(cyclohexylcarbonyl)piperidin-4-yl]phenyl}-1-(pyridazin-3-yl)azetidine-3-carboxamide] displayed a concentration for half-maximal inhibition (IC50) of 0.00183 µM.

Molecule `O=C(Nc1ccc(O[C@@H]2CCN(C(=O)Cc3ccc(F)cc3)C2)cc1)C1CN(c2ccnnc2)C1` [Example 449, N-[4-({(3R)-1-[(4-fluorophenyl)acetyl]pyrrolidin-3-yl}oxy)phenyl]-1-(pyridazin-4-yl)azetidine-3-carboxamide] had a 50% inhibitory concentration (IC50) of 0.678 µM.

The molecule `Cc1ccc(C(=O)N2CC[C@@H](Oc3ccc(NC(=O)C4CN(c5cccnn5)C4)cc3)C2)s1` [Example 500, N-[4-({(3R)-1-[(5-methylthiophen-2-yl)carbonyl]pyrrolidin-3-yl}oxy)phenyl]-1-(pyridazin-3-yl)azetidine-3-carboxamide] yielded a 50% inhibitory concentration (IC50) of 0.00102 µM.

On to `O=C(Nc1ccc(C2CCN(C(=O)c3cccc4ccccc34)CC2)cc1)[C@H]1CCN(c2cccnn2)C1` [Example 639, (3S)-N-{4-[1-(naphthalen-1-ylcarbonyl)piperidin-4-yl]phenyl}-1-(pyridazin-3-yl)pyrrolidine-3-carboxamide], for which the IC50 came to 0.00816 µM.

In turn, `O=C(Nc1ccc(C2CCN(C(=O)C(c3ccccc3)c3ccccc3)CC2)cc1)[C@H]1CCN(c2cccnn2)C1` [Example 698, (3S)-N-{4-[1-(diphenylacetyl)piperidin-4-yl]phenyl}-1-(pyridazin-3-yl)pyrrolidine-3-carboxamide] returned a 50% inhibitory concentration (IC50) of 0.0679 µM.

On to `O=C(Nc1ccc(O[C@@H]2CCN(C(=O)c3cccc(F)c3)C2)cc1)[C@H]1CCN(c2cccnn2)C1` [Example 776, (3S)-N-(4-{[(3R)-1-(3-fluorobenzoyl)pyrrolidin-3-yl]oxy}phenyl)-1-(pyridazin-3-yl)pyrrolidine-3-carboxamide], for which the IC50 is 0.00764 µM.

`O=C(NC1CN(c2cccnn2)C1)c1ccc(C2CCN(C(=O)c3cc(F)cc(F)c3)CC2)s1` [Example 816, 5-[1-(3,5-difluorobenzoyl)piperidin-4-yl]-N-[1-(pyridazin-3-yl)azetidin-3-yl]thiophene-2-carboxamide] gave an IC50 of 0.188 µM.

For the molecule `O=C(Nc1ccc(O[C@@H]2CCN(C(=O)c3ccc(F)cc3)C2)cc1)C1CN(c2cccnn2)C1` [Example 489, N-(4-{[(3R)-1-(4-fluorobenzoyl)pyrrolidin-3-yl]oxy}phenyl)-1-(pyridazin-3-yl)azetidine-3-carboxamide], the half-maximal inhibitory concentration (IC50) worked out at 0.00207 µM.

`CC(C)(O)C(=O)N1CCC(c2ccc(NC(=O)[C@H]3CCN(c4ccnnc4)C3)cc2)CC1` [Example 141, (3S)—N-{4-[1-(2-hydroxy-2-methylpropanoyl)piperidin-4-yl]phenyl}-1-(pyridazin-4-yl)pyrrolidine-3-carboxamide] yielded an IC50 of 0.834 µM.

Molecule `O=C(Nc1ccc(OC2CCN(C(=O)c3cccs3)CC2)cc1)C1CN(c2ccnnc2)C1` [Example 303, 1-(pyridazin-4-yl)-N-(4-{[1-(thiophen-2-ylcarbonyl)piperidin-4-yl]oxy}phenyl)azetidine-3-carboxamide] came in with an IC50 of 0.0586 µM.

Turning to `O=C(Nc1ccc(O[C@@H]2CCN(C(=O)c3ccccc3Cl)C2)cc1)C1CN(c2cccnn2)C1` [Example 483, N-(4-{[(3R)-1-(2-chlorobenzoyl)pyrrolidin-3-yl]oxy}phenyl)-1-(pyridazin-3-yl)azetidine-3-carboxamide], half-maximal inhibition (IC50) required 0.00214 µM.

The molecule `CC(C)Cn1cc(-c2cc(C(=O)N[C@@H]3CCN(c4cnnc(Cl)c4Cl)C3)cs2)cn1` [Example 622, N-[(3R)-1-(5,6-dichloropyridazin-4-yl)pyrrolidin-3-yl]-5-[1-(2-methylpropyl)-1H-pyrazol-4-yl]thiophene-3-carboxamide] gave an IC50 of over 10 µM.

On to `O=C(Nc1ccc(C2CCN(C(=O)c3ccccc3)CC2)cc1)C1CN(c2ccc(F)nn2)C1` [Example 818, N-[4-(1-benzoylpiperidin-4-yl)phenyl]-1-(6-fluoropyridazin-3-yl)azetidine-3-carboxamide], for which the IC50 worked out at 0.0294 µM.

Take `O=C(Nc1ccc(OC2CCN(C(=O)c3ccc(C(F)(F)F)cc3)CC2)cc1)C1CN(c2cccnn2)C1` [Example 237, 1-(pyridazin-3-yl)-N-[4-({1-[4-(trifluoromethyl)benzoyl]piperidin-4-yl}oxy)phenyl]azetidine-3-carboxamide]: the concentration for half-maximal inhibition (IC50) turned out to be 0.0103 µM.

As for `CCC(CC)CN1CCC(Oc2ccc(NC(=O)C3CN(c4cccnc4)C3)cc2)CC1` [Example 78, N-(4-{[1-(2-ethylbutyl)piperidin-4-yl]oxy}phenyl)-1-(pyridin-3-yl)azetidine-3-carboxamide], the IC50 is 0.0212 µM.

Regarding `O=C(Nc1ccc(OC2CN(C(=O)CC3CCOCC3)C2)cc1)C1CN(c2ccnnc2)C1` [Example 256, 1-(pyridazin-4-yl)-N-(4-{[1-(tetrahydro-2H-pyran-4-ylacetyl)azetidin-3-yl]oxy}phenyl)azetidine-3-carboxamide], the IC50 stood at 0.145 µM.

Consider `Cc1ncccc1N1CC(C(=O)Nc2ccc(C3CCN(C(=O)CCC(C)C)CC3)cc2)C1` [Example 176, N-{4-[1-(4-methylpentanoyl)piperidin-4-yl]phenyl}-1-(2-methylpyridin-3-yl)azetidine-3-carboxamide], for which the 50% inhibitory concentration (IC50) is 0.218 µM.

Molecule `O=C(Nc1ccc(C2CCN(C(=O)C3CCCO3)CC2)cc1)[C@H]1CCN(c2cccnn2)C1` (stereo partly drawn) [Example 661, (3S)-1-(pyridazin-3-yl)-N-{4-[1-(tetrahydrofuran-2-ylcarbonyl)piperidin-4-yl]phenyl}pyrrolidine-3-carboxamide] showed an IC50 of 0.0216 µM.

`CC(C)(C)Cc1nnc(-c2ccc(NC(=O)C3CN(c4cccnn4)C3)cc2)o1` [Example 803, N-{4-[5-(2,2-dimethylpropyl)-1,3,4-oxadiazol-2-yl]phenyl}-1-(pyridazin-3-yl)azetidine-3-carboxamide] came in with a half-inhibitory concentration (IC50) of 0.00161 µM.

For `CC1(C(=O)N2CCC(Oc3ccc(NC(=O)C4CN(c5cccnc5)C4)cc3)CC2)CCCCC1` [Example 53, N-[4-({1-[(1-methylcyclohexyl)carbonyl]piperidin-4-yl}oxy)phenyl]-1-(pyridin-3-yl)azetidine-3-carboxamide], the 50% inhibitory concentration (IC50) was determined as 0.00367 µM.

Regarding `CC(C)CC(=O)N1CCC(Oc2ccc(NC(=O)C3CN(c4cccnn4)C3)cc2)CC1` [Example 225, N-(4-{[1-(3-methylbutanoyl)piperidin-4-yl]oxy}phenyl)-1-(pyridazin-3-yl)azetidine-3-carboxamide], the concentration for half-maximal inhibition (IC50) worked out at 0.00876 µM.

Consider `CC(C)(C)C(=O)N1CCC(Oc2ccc(NC(=O)C3CN(c4cccnc4)C3)cc2)CC1` [Example 42, N-(4-{[1-(2,2-dimethylpropanoyl)piperidin-4-yl]oxy}phenyl)-1-(pyridin-3-yl)azetidine-3-carboxamide], for which the IC50 came out at 0.0646 µM.

Consider `CCOCCC(=O)N1CCC(c2ccc(NC(=O)[C@H]3CCN(c4cccnn4)C3)cc2)CC1` [Example 694, (3S)-N-{4-[1-(3-ethoxypropanoyl)piperidin-4-yl]phenyl}-1-(pyridazin-3-yl)pyrrolidine-3-carboxamide], for which the half-maximal inhibitory concentration (IC50) is 0.0716 µM.

As for `Cc1ccc(C(=O)N2CCC(c3ccc(NC(=O)C4CN(c5ccnnc5)C4)cc3)CC2)s1` [Example 539, N-(4-{1-[(5-methylthiophen-2-yl)carbonyl]piperidin-4-yl}phenyl)-1-(pyridazin-4-yl)azetidine-3-carboxamide], inhibition was half-maximal at 0.00257 µM (IC50).

Take `CC(C)Cn1cc(-c2ccc(C(=O)N[C@H]3CCN(c4ccnnc4)C3)s2)cn1` [Example 607, 5-[1-(2-methylpropyl)-1H-pyrazol-4-yl]-N-[(3S)-1-(pyridazin-4-yl)pyrrolidin-3-yl]thiophene-2-carboxamide]: the IC50 came to 7.65 µM.

Take `N#Cc1cccc(C(=O)N2CCC(c3ccc(NC(=O)[C@H]4CCN(c5cccnn5)C4)cc3)CC2)c1` [Example 733, (3S)-N-{4-[1-(3-cyanobenzoyl)piperidin-4-yl]phenyl}-1-(pyridazin-3-yl)pyrrolidine-3-carboxamide]: half-maximal inhibition (IC50) required 0.0375 µM.

`CC(C)(C)c1cc(-c2ccc(NC(=O)C3CN(c4cccnn4)C3)cc2)n(CC2CCOCC2)n1` [Example 867, N-{4-[3-tert-butyl-1-(tetrahydro-2H-pyran-4-ylmethyl)-1H-pyrazol-5-yl]phenyl}-1-(pyridazin-3-yl)azetidine-3-carboxamide]: the half-maximal inhibitory concentration (IC50) is 0.00784 µM.

In the case of `CC(=O)N1CCC(c2ccc(NC(=O)C3CN(c4cccnc4)C3)cc2)CC1` [Example 118, N-[4-(1-acetylpiperidin-4-yl)phenyl]-1-(pyridin-3-yl)azetidine-3-carboxamide], inhibition was half-maximal at 0.00022 µM (IC50).

The molecule `O=C(Nc1ccc(OC2CCN(C(=O)C3CCC(F)(F)CC3)CC2)cc1)C1CN(c2ccnnc2)C1` [Example 270, N-[4-({1-[(4,4-difluorocyclohexyl)carbonyl]piperidin-4-yl}oxy)phenyl]-1-(pyridazin-4-yl)azetidine-3-carboxamide] had an IC50 of 0.0627 µM.

Values taken from patent US20130303509A1, “NAMPT INHIBITORS” (AbbVie Inc., priority 2012, published 2013).
